We go through four compounds from patent publication EP3046573B1, “AMYLIN ANALOGUES” (Zealand Pharma A/S, priority 2013, dated 2015).

One may read the EC50 as the concentration at which the effect is half-maximal.

Molecules are shown by their SMILES. Where two headings read alike, the source gives them in different places. Numbered stars: 1 amine (or outer) side, 2 acyl side, 3 side chain; on linkers, the order of the positions; unused ones are H or OH. Bridge positions count the residues as written; N and C are the ends. Square brackets hold non-standard residues; d marks the D form. Peptide text beside a SMILES is read from it. * marks the point of attachment. C20 diacid = O=C(O)CCCCCCCCCCCCCCCCCCC(=O)*; γGlu = O=C(O)[C@H](CCC(=O)[*:2])N[*:1]; NMeI = CC[C@H](C)[C@H](NC)C(=O)O; Sar = CNCC(=O)O

Data set [1] is described as follows: Solubility assessment (turbidity absorbance at 325 nm). In kind it is physicochemical. The settings on record: stock 2 mg/ml diluted 1:1, ambient temperature (typically 25°C), n=1; for Solubility, Acetate buffer pH 4: 100 mM acetate buffer pH 4.0; for Solubility, Acetate buffer pH 5: 100 mM acetate buffer pH 5.0; for Solubility, Histidine buffer pH 6: 100 mM histidine buffer pH 6.0; for Solubility, Histidine buffer pH 7: 100 mM histidine buffer pH 7.0; for Solubility, Phosphate buffer pH 6: 100 mM phosphate buffer pH 6.0; for Solubility, Phosphate buffer pH 7: 100 mM phosphate buffer pH 7.0; for Solubility, Phosphate buffer pH 7.5: 100 mM phosphate buffer pH7.5. Put shortly:
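Read-out: turbidity as absorbance at 325 nm (280 nm also read), single samples, ambient temperature of typically 25°C. Samples were a 1:1 mix of 2 mg/ml stock (water, pH 2.5) with 100 mM acetate, histidine or phosphate buffers spanning pH 4.0–7.5. Cut-off: A325 ≤ 0.02 indicates ≥ 1 mg/ml.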

Data set [2] concerns the target T1, human calcitonin receptor (hCTR2) (Homo sapiens, UniProt P30988).
T1 construct: expressed in transfected cells
T1 sequence (P30988 25-474): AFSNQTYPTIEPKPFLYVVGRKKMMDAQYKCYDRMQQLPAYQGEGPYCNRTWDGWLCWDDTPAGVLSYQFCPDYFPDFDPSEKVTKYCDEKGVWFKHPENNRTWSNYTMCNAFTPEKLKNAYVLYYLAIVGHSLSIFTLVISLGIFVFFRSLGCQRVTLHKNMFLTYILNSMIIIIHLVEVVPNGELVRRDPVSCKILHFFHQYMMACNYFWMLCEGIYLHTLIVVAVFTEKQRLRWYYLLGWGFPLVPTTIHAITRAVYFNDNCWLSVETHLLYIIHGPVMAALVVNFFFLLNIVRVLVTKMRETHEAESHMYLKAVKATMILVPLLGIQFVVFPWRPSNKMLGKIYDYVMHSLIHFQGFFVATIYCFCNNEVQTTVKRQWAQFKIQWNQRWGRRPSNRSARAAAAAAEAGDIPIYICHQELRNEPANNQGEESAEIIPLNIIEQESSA
As to the kind of experiment: hCTR2 assay: induction of cAMP (AlphaScreen cAMP Assay kit) in COS7 cells expressing hCTR2. The class given is cell-based. Put shortly: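 cAMP induction was measured by AlphaScreen in COS7 cells stably expressing hCTR2 without RAMPs, after 15 min at 37° C with increasing peptide concentrations, 100 µM IBMX and 0.1% casein (Tyrode, pH 7.4). A 4-parameter logistic fit gave EC50 and % efficacy versus pramlintide.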
In general terms: Bead proximity is the source of the signal in Alpha formats.

As for `CC[C@H](C)[C@@H](C(=O)N[C@@H](CC(C)C)C(=O)N[C@@H](CO)C(=O)N[C@@H](CO)C(=O)N[C@H](C(=O)N[C@@H](CC(N)=O)C(=O)N[C@H](C(=O)NCC(=O)N[C@@H](CO)C(=O)N[C@@H](CC(N)=O)C(=O)N[C@H](C(=O)N1CCC[C@H]1C(N)=O)[C@@H](C)O)C(C)C)[C@@H](C)O)N(C)C(=O)CN(C)C(=O)[C@H](Cc1ccccc1)NC(=O)[C@@H](CC(N)=O)NC(=O)[C@H](CC(N)=O)NC(=O)[C@H](CO)NC(=O)[C@H](CO)NC(=O)[C@H](Cc1c[nH]cn1)NC(=O)[C@H](Cc1c[nH]cn1)NC(=O)[C@H](CC(C)C)NC(=O)[C@H](Cc1ccccc1)NC(=O)[C@H](CCC(=O)O)NC(=O)[C@H](C)NC(=O)[C@H](CC(C)C)NC(=O)[C@H](CCCNC(=N)N)NC(=O)[C@H](CCC(N)=O)NC(=O)[C@@H](NC(=O)[C@H](C)NC(=O)[C@@H]1CSSC[C@H](NC(=O)[C@H](CCCNC(=N)N)NC(=O)CC[C@H](NC(=O)CCCCCCCCCCCCCCCCCCC(=O)O)C(=O)O)C(=O)N[C@@H](CC(N)=O)C(=O)N[C@@H]([C@@H](C)O)C(=O)N[C@@H](C)C(=O)N[C@@H]([C@@H](C)O)C(=O)N1)[C@@H](C)O` [Compound 36, [19CD]-isoGlu-RC()NTATC()ATQRLAEFLHHSSN-DAsn-F-Gly(Me)-Ile(Me)-LSSTNVGSNTP-NH2] ({C20 diacid-γGlu}-RCNTATCATQRLAEFLHHSSN[dN]F[Sar][NMeI]LSSTNVGSNTP-NH2; disulfide 2-7), in data set [1], the “Solubility, Acetate buffer pH 4” value is given as “SS (SS indicates solubility ≥ 1mg/ml)”; the “Solubility, Acetate buffer pH 5” value was “SS (SS indicates solubility ≥ 1mg/ml)”; the “Solubility, Histidine buffer pH 6” value is recorded as “SS (SS indicates solubility ≥ 1mg/ml)”; the “Solubility, Histidine buffer pH 7” value is “SS (SS indicates solubility ≥ 1mg/ml)”. Besides, in data set [1], the “Solubility, Phosphate buffer pH 6” value was “SS (SS indicates solubility ≥ 1mg/ml)”; the “Solubility, Phosphate buffer pH 7” value is “SS (SS indicates solubility ≥ 1mg/ml)”; the “Solubility, Phosphate buffer pH 7.5” value is reported as “SS (SS indicates solubility ≥ 1mg/ml)”. Besides, the 50% effective concentration (EC50) in data set [2] (cAMP induction in COS7 cells expressing hCTR2, average of a minimum of 3 determinations, read-out: hCTR2 EC50) is 0.17 nM.
`CC[C@H](C)[C@@H](C(=O)N[C@@H](CC(C)C)C(=O)N[C@@H](CO)C(=O)N[C@@H](CO)C(=O)N[C@@H](CC(N)=O)C(=O)N[C@H](C(=O)NCC(=O)N[C@@H](CO)C(=O)N[C@@H](CC(N)=O)C(=O)N[C@H](C(=O)N1CCC[C@H]1C(N)=O)[C@@H](C)O)C(C)C)N(C)C(=O)[C@H](C)NC(=O)CN(C)C(=O)[C@H](Cc1ccccc1)NC(=O)[C@H](CC(N)=O)NC(=O)[C@H](CC(N)=O)NC(=O)[C@H](CO)NC(=O)[C@H](CO)NC(=O)[C@H](Cc1c[nH]cn1)NC(=O)[C@H](Cc1c[nH]cn1)NC(=O)[C@H](CC(C)C)NC(=O)[C@H](Cc1ccccc1)NC(=O)[C@H](CCC(=O)O)NC(=O)[C@H](C)NC(=O)[C@H](CC(C)C)NC(=O)[C@H](CCCNC(=N)N)NC(=O)[C@H](CCC(N)=O)NC(=O)[C@@H](NC(=O)[C@H](C)NC(=O)[C@@H]1CSSC[C@H](NC(=O)[C@H](CCCNC(=N)N)NC(=O)CC[C@H](NC(=O)CCCCCCCCCCCCCCCCCCC(=O)O)C(=O)O)C(=O)N[C@@H](CC(N)=O)C(=O)N[C@@H]([C@@H](C)O)C(=O)N[C@@H](C)C(=O)N[C@@H]([C@@H](C)O)C(=O)N1)[C@@H](C)O` [Compound 37, [19CD]-isoGlu-RC()NTATC()ATQRLAEFLHHSSNNF-Gly(Me)-A-Ile(Me)-LSSNVGSNTP-NH2] ({C20 diacid-γGlu}-RCNTATCATQRLAEFLHHSSNNF[Sar]A[NMeI]LSSNVGSNTP-NH2; disulfide 2-7): in data set [1], the “Solubility, Acetate buffer pH 4” value is recorded as “SS (SS indicates solubility ≥ 1mg/ml)”; the “Solubility, Acetate buffer pH 5” value is listed as “SS (SS indicates solubility ≥ 1mg/ml)”; the “Solubility, Histidine buffer pH 6” value is “SS (SS indicates solubility ≥ 1mg/ml)”; the “Solubility, Histidine buffer pH 7” value was “SS (SS indicates solubility ≥ 1mg/ml)”. For the same compound, in data set [1], the “Solubility, Phosphate buffer pH 6” value is “SS (SS indicates solubility ≥ 1mg/ml)”; the “Solubility, Phosphate buffer pH 7” value is on record as “SS (SS indicates solubility ≥ 1mg/ml)”; the “Solubility, Phosphate buffer pH 7.5” value was “SS (SS indicates solubility ≥ 1mg/ml)”. Besides, the EC50 in data set [2] amounted to 0.39 nM.
As for `CC[C@H](C)[C@@H](C(=O)N[C@@H](CC(C)C)C(=O)N[C@@H](CO)C(=O)N[C@@H](CO)C(=O)N[C@H](C(=O)N[C@@H](CC(N)=O)C(=O)N[C@H](C(=O)NCC(=O)N[C@@H](CO)C(=O)N[C@@H](CC(N)=O)C(=O)N[C@H](C(=O)N1CCC[C@H]1C(N)=O)[C@@H](C)O)C(C)C)[C@@H](C)O)N(C)C(=O)CN(C)C(=O)[C@H](Cc1ccccc1)NC(=O)[C@H](CC(N)=O)NC(=O)[C@H](CO)NC(=O)[C@H](CO)NC(=O)[C@H](Cc1c[nH]cn1)NC(=O)[C@H](Cc1c[nH]cn1)NC(=O)[C@H](CC(C)C)NC(=O)[C@H](Cc1ccccc1)NC(=O)[C@H](CCC(=O)O)NC(=O)[C@H](C)NC(=O)[C@H](CC(C)C)NC(=O)[C@H](CCCNC(=N)N)NC(=O)[C@H](CCC(N)=O)NC(=O)[C@@H](NC(=O)[C@H](C)NC(=O)[C@@H]1CSSC[C@H](NC(=O)[C@H](CCCNC(=N)N)NC(=O)CC[C@H](NC(=O)CCCCCCCCCCCCCCCCCCC(=O)O)C(=O)O)C(=O)N[C@@H](CC(N)=O)C(=O)N[C@@H]([C@@H](C)O)C(=O)N[C@@H](C)C(=O)N[C@@H]([C@@H](C)O)C(=O)N1)[C@@H](C)O` [Compound 38, [19CD]-isoGlu-RC()NTATC()ATQRLAEFLHHSSNF-Gly(Me)-Ile(Me)-LSSTNVGSNTP-NH2] ({C20 diacid-γGlu}-RCNTATCATQRLAEFLHHSSNF[Sar][NMeI]LSSTNVGSNTP-NH2; disulfide 2-7), in data set [1], the “Solubility, Acetate buffer pH 4” value was “II (II indicates solubility ≤ 1 mg/ml)”; the “Solubility, Acetate buffer pH 5” value was “II (II indicates solubility ≤ 1 mg/ml)”; the “Solubility, Histidine buffer pH 6” value was “II (II indicates solubility ≤ 1 mg/ml)”; the “Solubility, Histidine buffer pH 7” value is given as “II (II indicates solubility ≤ 1 mg/ml)”. In addition, in data set [1], the “Solubility, Phosphate buffer pH 6” value is “II (II indicates solubility ≤ 1 mg/ml)”; the “Solubility, Phosphate buffer pH 7” value was “II (II indicates solubility ≤ 1 mg/ml)”; the “Solubility, Phosphate buffer pH 7.5” value is listed as “II (II indicates solubility ≤ 1 mg/ml)”. Also, in data set [2], the 50% effective concentration (EC50) amounted to 0.16 nM.
Turning to `CC[C@H](C)[C@@H](C(=O)N[C@@H](CC(C)C)C(=O)N[C@@H](CO)C(=O)N[C@@H](CO)C(=O)N[C@H](C(=O)N[C@@H](CC(N)=O)C(=O)N[C@H](C(=O)NCC(=O)N[C@@H](CO)C(=O)N[C@@H](CC(N)=O)C(=O)N[C@H](C(=O)N1CCC[C@H]1C(N)=O)[C@@H](C)O)C(C)C)[C@@H](C)O)N(C)C(=O)[C@H](C)NC(=O)CN(C)C(=O)[C@H](Cc1ccccc1)NC(=O)[C@H](CC(N)=O)NC(=O)[C@H](CC(N)=O)NC(=O)[C@H](CO)NC(=O)[C@H](CO)NC(=O)[C@H](Cc1c[nH]cn1)NC(=O)[C@H](CC(C)C)NC(=O)[C@H](Cc1ccccc1)NC(=O)[C@H](CCC(=O)O)NC(=O)[C@H](C)NC(=O)[C@H](CC(C)C)NC(=O)[C@H](CCCNC(=N)N)NC(=O)[C@H](CCC(N)=O)NC(=O)[C@@H](NC(=O)[C@H](C)NC(=O)[C@@H]1CSSC[C@H](NC(=O)[C@H](CCCNC(=N)N)NC(=O)CC[C@H](NC(=O)CCCCCCCCCCCCCCCCCCC(=O)O)C(=O)O)C(=O)N[C@@H](CC(N)=O)C(=O)N[C@@H]([C@@H](C)O)C(=O)N[C@@H](C)C(=O)N[C@@H]([C@@H](C)O)C(=O)N1)[C@@H](C)O` [Compound 39, [19CD]-isoGlu-RC()NTATC()ATQRLAEFLHSSNNF-Gly(Me)-A-Ile(Me)-LSSTNVGSNTP-NH2] ({C20 diacid-γGlu}-RCNTATCATQRLAEFLHSSNNF[Sar]A[NMeI]LSSTNVGSNTP-NH2; disulfide 2-7), in data set [1], the “Solubility, Acetate buffer pH 4” value is “SS (SS indicates solubility ≥ 1mg/ml)”; the “Solubility, Acetate buffer pH 5” value is “SS (SS indicates solubility ≥ 1mg/ml)”; the “Solubility, Histidine buffer pH 6” value is given as “SS (SS indicates solubility ≥ 1mg/ml)”; the “Solubility, Histidine buffer pH 7” value was “SS (SS indicates solubility ≥ 1mg/ml)”. For the same compound, in data set [1], the “Solubility, Phosphate buffer pH 6” value was “SS (SS indicates solubility ≥ 1mg/ml)”; the “Solubility, Phosphate buffer pH 7” value is on record as “SS (SS indicates solubility ≥ 1mg/ml)”; the “Solubility, Phosphate buffer pH 7.5” value was “SS (SS indicates solubility ≥ 1mg/ml)”. Further, the EC50 in data set [2] was 0.19 nM.
